# In article PMC8037406, “Symbiotic NCR Peptide Fragments Affect the Viability, Morphology and Biofilm Formation of Candida Species” (International Journal of Molecular Sciences, 2021):
# Like-named read-outs stand apart in the source and are kept apart here. Where a SMILES comes first, the peptide text is derived from it. Bridges are numbered along the chain shown (N, C = ends).
# Experiments:
# [1] = test system: Candida auris 0381; test: microbe, parasite or virus in culture; type: cell-based; conditions: micro-dilution, YNB medium, 4 × 10^4 cell/mL, 48 h, 30 °C, OD 620 nm; MIC = growth inhibition ≥90%; peptides 25 to 1.56 µM, fluconazole 200 to 0.78 µM; three biological repeats in triplicates; further: key: -: no growth inhibition was observed
# Description: (§1) The antifungal activity of all the 14 peptides was tested against the following opportunistic human pathogen Candida species and strains: C. albicans strains ATCC 10231, SC 5314 and SZMC 1458, C. auris 0381, C. glabrata CBS 138, C. parapsilosis CBS 604 and C. tropicalis CBS 94.
# (§2) All the Candida strains (Table 4) were grown overnight in YPD medium (1% pepton, 1% dextrose, 0.5% yeast extract) at 30 °C in water bath shaker prior to each experiments. The cells were harvested by centrifugation (5 min, 3000× g) washed twice with sterile distilled water and suspended in 5-fold diluted Difco Yeast Nitrogen Base w/o Amino Acids medium (Becton, Dickinson and Company, Sparks, MD, USA) supplemented with 1% dextrose, referred to as YNB medium in the text. Cells were counted in Bürker chamber and diluted to the proper concentration.
# (§3) The growth inhibition of the peptides listed in Table 1 was tested in 96-well microtiter plates on Candida strains. The minimal inhibitory concentration (MIC) was determined with the micro-dilution method by adding 5 µL serially two-fold-diluted peptide solution to 95 µL of cell suspension (4 × 10^4 cell/mL) in YNB medium. After 48 h of incubation at 30 °C the optical density of the cultures was measured at 620 nm in SPECTROstar Nano plate reader (BMG LabTech, Offenburg, Germany). Minimal inhibitory concentration was defined as growth inhibition ≥90% compared to 100% growth of the untreated control. The experiments were carried out in three biological repeats always in triplicates.
# [2] = test system: Candida parapsilosis CBS 604; test: microbe, parasite or virus in culture; type: cell-based; conditions: micro-dilution, YNB medium, 4 × 10^4 cell/mL, 48 h, 30 °C, OD 620 nm; MIC = growth inhibition ≥90%; peptides 25 to 1.56 µM, fluconazole 200 to 0.78 µM; three biological repeats in triplicates; further: key: -: no growth inhibition was observed
# Description: as §1, §2, §3
# [3] = test system: Candida cells; test: Fungicide effect, spotting of treated cells on solid YPD medium; type: cell-based, Candida species; conditions: 1.56–25 µM, 24 h treatment, dilutions spotted on solid YPD medium, 48 h, 30 °C
# Description: To determine whether the inhibitory effect of the peptides is generated by fungistatic or fungicide action, the Candida cells were treated with the peptides in the same concentration range (1.56–25 µM) as in the growth inhibition assay. After 24 h 5 µL sample from the untreated control cells and from the peptide treated cells was added to 95 µL water and diluted further 10- and 100-fold. From each dilution, 5 µL was placed on solid medium and the growth of the control and peptide treated cells was compared after 48 h incubation at 30 °C. This assay confirmed that all the effective peptides, NCR335N1–19, NCR335N7–21, NCR335C1–33, NCR335C13–33, NCR335C17–33, NCR169C17–38, NCR169C17–38ox, NCR169C17–38W10,20/A provoked growth inhibition through fungicidal actions (Figure A2). The fungicide concentrations, required for the complete elimination of the Candida cells, were either equal to or twice higher than the minimum inhibitory concentrations presented in Table 2.
# The same initial experimental setting was used to determine the fungicide effect of the peptides. Five µL samples were taken from the cultures after 24 h and were added to 95 µL sterile distilled water, and diluted to 10- and 100-fold (indicated as 10^4, 10^3 and 10^2 based on the cell number of the control culture in Figure A2). Five µL from each dilution were placed on solid YPD medium and the growth of the strains was detected after 48 h incubation at 30 °C.
# [4] = test system: C. albicans ATCC 10231 biofilm; test: Biofilm formation assay, XTT; type: cell-based, Candida albicans; conditions: 72 h, 37 °C, 5 % CO2, 1/8AIM medium, p ≤ 0.0001
# [5] = test system: C. albicans SC 5314 biofilm; test: Biofilm formation assay, XTT; type: cell-based, Candida albicans; conditions: 72 h, 37 °C, 5 % CO2, 1/8AIM medium, p ≤ 0.0001
# [6] = test system: C. albicans SZMC 1458 biofilm; test: Biofilm formation assay, XTT; type: cell-based, Candida albicans; conditions: 72 h, 37 °C, 5 % CO2, 1/8AIM medium, p ≤ 0.0001
# [7] = test system: C. tropicalis CBS 94 biofilm; test: Biofilm formation assay, XTT; type: cell-based, Candida tropicalis; conditions: 72 h, 37 °C, 5 % CO2, 1/8AIM medium, p ≤ 0.0001
# [8] = test system: C. albicans ATCC 10231; test: Yeast-hypha morphology, bright-field microscopy; type: cell-based, Candida albicans; conditions: 3.12 µM peptide, 48 h, 1/8AIM medium, sub-lethal concentration
# Description: (§4) As hyphae formation is an important virulence factor, we investigated how the broad range activity peptides, NCR335C17–33, NCR169C17–38 and NCR169C17–38ox affect the morphological switch of C. albicans ATCC 10231 and C. tropicalis between the hyphal and yeast growth forms at sub-lethal concentrations (Figure 1). […] However, not only the morphology changed, but the cell number also declined, particularly in the latter case.
# (§5) To induce morphological change of C. albicans and C. tropicalis YNB medium was changed for eight-fold diluted AIM-V+AlbuMAX (BSA) medium (Gibco, Thermo Fisher Scientific, Dublin, Ireland) referred to as 1/8AIM in the text.
# (§6) Bright-field microscopy. The morphology of C. albicans ATCC 10231 and C. tropicalis cells was examined after 48 h incubation with the selected peptides (NCR335C17–33 and NCR169C17–38) by Zeiss Axio Observer inverted microscope (Carl Zeiss AG, Jena, Germany). The concentration of the NCR335C17–33 was 1.56 and 3.12 µM, NCR169C17–38 1.56 or 3.12 µM while NCR169C17–38ox 0.78 or 3.12 µM, the initial cell concentration was set to 4 × 10^4 cell/mL. Cells cultivated without peptides were used as control.
# [9] = test system: C. tropicalis CBS 94; test: Yeast-hypha morphology, bright-field microscopy; type: cell-based, Candida tropicalis; conditions: 0.78 µM peptide, 48 h, 1/8AIM medium
# Description: as §4, §5, §6
# [10] = test system: C. auris; conditions: C. auris; for reduction of MIC in the synergistic combination: compared with single use
# Description: Amphotericin B, due to its high toxicity was not included in this assay.
# The effects of the different combinations of fluconazole and NCR335C17–33, NCR169C17–38 or NCR169C17–38ox were determined by standard checkerboard titration method. The fluconazole was tested in a concentration range from 6.25 to 75 µM, NCR169C17–38 and NCR169C17–38ox from 0.78 to 12.50 µM, NCR335C17–33 from 1.56 to 25 µM. The initial cell concentration in each well was 4 × 10^4 cell/mL. After the incubation for 72 h at 30 °C, the optical density of the cultures was detected at 620 nm in SPECTROstar Nano plate reader (BMG LabTech, Offenburg, Germany). The inhibitory concentrations were determined for each compound alone and in combinations. The experiments were carried out at least three times. The effect of combinations was evaluated by fractional inhibitory concentration (FIC) index. FIC = FICA + FICB. FICA = (MICA in combination)/(MICA alone); FICB = (MICB in combination)/(MICB alone)
# [11] = test system: Candida tropicalis CBS 94; test: microbe, parasite or virus in culture; type: cell-based; conditions: micro-dilution, YNB medium, 4 × 10^4 cell/mL, 48 h, 30 °C, OD 620 nm; MIC = growth inhibition ≥90%; peptides 25 to 1.56 µM, fluconazole 200 to 0.78 µM; three biological repeats in triplicates; further: key: -: no growth inhibition was observed
# Description: as §1, §2, §3
# [12] = test system: Candida albicans; conditions: cited from earlier work
# Description: In addition to bacteria, NCRs can also kill fungi. […] However, we noticed that, unlike the full sequence of NCR169, its C-terminal half was highly cationic (pI: 10.1) leading us to assume that this part may have antimicrobial activity.
Molecule,"Minimal inhibitory concentration, Cau 0381 [1]","Minimal inhibitory concentration, Cp CBS 604 [2]",growth inhibition by fungistatic or fungicide action [3],"concentration significantly inhibiting biofilm formation, relative to MIC [4]","concentration significantly inhibiting biofilm formation, relative to MIC [5]","concentration significantly inhibiting biofilm formation, relative to MIC [6]","concentration significantly inhibiting biofilm formation, relative to MIC [7]",other results
"CC[C@H](C)[C@H](NC(=O)[C@H](CCCCN)NC(=O)[C@H](Cc1ccccc1)NC(=O)[C@H](CC(C)C)NC(=O)[C@@H]1CCCN1C(=O)[C@H](CCCCN)NC(=O)[C@H](CCCCN)NC(=O)[C@H](CO)NC(=O)[C@@H](N)CCCCN)C(=O)N[C@@H](C)C(=O)N[C@@H](CCCCN)C(=O)N[C@@H](CS)C(=O)N[C@H](C(=O)N[C@@H](CCC(=O)O)C(=O)N[C@@H](CC(N)=O)C(=O)N[C@H](C(=O)N[C@@H](CS)C(=O)N[C@H](C(=O)N[C@@H](CC(C)C)C(=O)N[C@@H](C)C(=O)N[C@@H](Cc1ccc(O)cc1)C(=O)N[C@@H](CCCCN)C(N)=O)C(C)C)C(C)C)C(C)C [NCR169C17–38W10,20/A] (H-KSKKPLFKIAKCVENVCVLAYK-NH2; N-terminus assumed)",-,-,fungicidal,half MIC,half MIC,MIC,one-fourth of the MIC,
CC[C@H](C)[C@H](NC(=O)[C@H](CCCCN)NC(=O)[C@H](Cc1ccccc1)NC(=O)[C@H](CC(C)C)NC(=O)[C@@H]1CCCN1C(=O)[C@H](CCCCN)NC(=O)[C@H](CCCCN)NC(=O)[C@H](CO)NC(=O)[C@@H](N)CCCCN)C(=O)N[C@@H](Cc1c[nH]c2ccccc12)C(=O)N[C@@H](CCCCN)C(=O)N[C@H]1CSSC[C@@H](C(=O)N[C@H](C(=O)N[C@@H](CC(C)C)C(=O)N[C@@H](Cc2c[nH]c3ccccc23)C(=O)N[C@@H](Cc2ccc(O)cc2)C(=O)N[C@@H](CCCCN)C(N)=O)C(C)C)NC(=O)[C@H](C(C)C)NC(=O)[C@H](CC(N)=O)NC(=O)[C@H](CCC(=O)O)NC(=O)[C@H](C(C)C)NC1=O [NCR169C17–38ox] (H-KSKKPLFKIWKCVENVCVLWYK-NH2; disulfide 12-17; N-terminus assumed),,-,fungicidal,MIC,one-fourth of the MIC,half MIC,half MIC,effect on hyphal growth [8]: completely inhibited the hyphal growth; effect on hyphal/yeast growth form [9]: the only form of the culture; Action ([10]; NCR169C17–38 + NCR169C17–38ox): Synergism; reduction of MIC in the synergistic combination ([10]; NCR169C17–38 + NCR169C17–38ox): 8 ×; Action ([10]; fluconazole + NCR169C17–38ox): Synergism; reduction of MIC in the synergistic combination ([10]; fluconazole + NCR169C17–38ox): 8 ×
CC[C@H](C)[C@H](NC(=O)[C@@H]1CCCN1C(=O)[C@@H](NC(=O)[C@H](CS)NC(=O)[C@H](Cc1ccc(O)cc1)NC(=O)[C@H](CO)NC(=O)[C@H](CCCCN)NC(=O)[C@H](CCCNC(=N)N)NC(=O)[C@H](CS)NC(=O)[C@H](CCCNC(=N)N)NC(=O)[C@@H](NC(=O)[C@H](CC(N)=O)NC(=O)[C@H](C)NC(=O)[C@H](CCCNC(=N)N)NC(=O)[C@H](CCCNC(=N)N)NC(=O)[C@H](CC(C)C)NC(=O)[C@H](CCCCN)NC(=O)[C@@H]1CCCN1C(=O)[C@H](CS)NC(=O)[C@H](CC(=O)O)NC(=O)[C@H](CCCCN)NC(=O)[C@H](CC(N)=O)NC(=O)[C@@H](NC(=O)[C@H](CCCCN)NC(=O)[C@H](CS)NC(=O)[C@H](CC(=O)O)NC(=O)[C@H](CO)NC(=O)[C@H](CC(C)C)NC(=O)[C@@H](NC(=O)[C@H](CC(C)C)NC(=O)[C@H](CO)NC(=O)[C@H](Cc1ccccc1)NC(=O)[C@@H](N)Cc1c[nH]cn1)[C@@H](C)CC)[C@@H](C)O)C(C)C)C(C)C)C(N)=O [NCR335C1–33] (H-HFSLILSDCKTNKDCPKLRRANVRCRKSYCVPI-NH2; N-terminus assumed),-,,fungicidal,,,,,"Minimal inhibitory concentration, Ct CBS 94 [11]: -"
EDIGHIKYCGIVDDCYKSKKPLFKIWKCVENVCVLWYK [NCR169],,,,,,,,activity against C. albicans ([12]; in the studied concentration range): inactive
"RLNTTFRPLNFKMLRFWGQNRNIMKHRGQKVHFSLILSDCKTNKDCPKLRRANVRCRKSYCVPI [NCR335, 64 amino acid long cationic nodule specific cysteine-rich peptide of Medicago truncatula]",,,,,,,,"MIC ([12]; C. albicans): 1.4 to 2.5 µM; minimal inhibitory concentrations (MIC), range over the listed cationic NCR peptides ([12]; C. albicans): 1.4 to 10 µM"
